Measured values: patent publication US20180116213A1 (priority 2015, published 2018)

Legend:
[1] = system: leaf discs of the common lawn weed Plantiago major; assay: Leaf disc bioassay, Plantiago major leaf discs; parameters: key to necrosis and chlorosis 18 HAT / necrosis and chlorosis 36 HAT: 0: no damage; +: minor damages; ++: severe damages on up to 50% of leave surface; +++: damages on more than 50% of leave surface; ++++: 100% damage
Excerpt: (§1) The plants and leaves were visually assessed for damages by necrosis and chlorosis with the following scale for evaluation: • 0: no damage • +: minor damages • ++: severe damages on up to 50% of leave surface • +++: damages on more than 50% of leave surface • ++++: 100% damage
5 mm discs were cut from leaves of plants from Plantiago major, Sesamum indicum, Aegopodium potagraria and Chelidonium majus using a paper punch (5 mm). 3 leaf discs of 5 mm Ø were placed in each well of 12-well microtiter plates. Each well containing 2 ml deionized H2O, or solutions of various concentrations of glyphosate, 2,4-D or synergistic mixtures (M). The plates were incubated under continuous light at 20° C. for the listed times. The leaf discs were visually assessed for chlorosis and necrosis at various times after treatment according to the scale for classification. The visual rating utilized a rating scale from 0 to ++++, where 0=no damage by necrosis/chlorosis, and ++++=total damage by chlorosis/necrosis (see Literature).
3 leaf discs of 5 mm Ø were placed in each well of 12-well microtiter plates. Each well containing 2 ml deionized H2O, or solutions of various concentrations of 2,4-D or synergistic mixture M4 with a 1:1 mixture of citric acid and SDS. The plates were incubated under continuous light at 20° C. for the listed times. The leaf discs were visually assessed for chlorosis and necrosis according to the scale for classification and listed for hours after treatment (HAT). The visual rating utilized a rating scale from 0 to ++++, where 0=no damage by necrosis/chlorosis, and ++++=total damage by chlorosis/necrosis.

plant leaves = assay: Different tests (leaf disc bioassays, growth chamber trials, field trials), summary; conditions: herbicide alone at a concentration of 0.1% to 0.25%
Method: The activity of the synergistic mixtures to enhance the efficacy of herbicides was tested in vitro by leaf disc bioassays, in growth chamber trials with seedlings and in field trials with various different weed species.
as §1

[2] = application rate 0.1 % of volume
[3] = application rate 0.25 % of volume
[4] = application rate 0.5 % of volume

SMILES: O=C(O)COc1ccc(Cl)cc1Cl [2,4-D, 2,4-dichlorophenoxyacetic acid]
- necrosis and chlorosis 18 HAT [1, 2]: 0
- necrosis and chlorosis 36 HAT [1, 2]: 0
- necrosis and chlorosis 18 HAT [1, 3]: 0
- necrosis and chlorosis 36 HAT [1, 3]: 0
- necrosis and chlorosis 18 HAT [1, 4]: 0
- necrosis and chlorosis 36 HAT [1, 4]: 0
- damage of the leaf discs ([1]; substance alone, conditions of Table 4): do not show efficient damage
- damage of plant leaves (plant leaves): did not show any significant damage
